Results published in article PMC10022191, “Safety, tolerability, pharmacokinetics, and antiviral activity of the novel core protein allosteric modulator ZM-H1505R (Canocapavir) in chronic hepatitis B patients: a randomized multiple-dose escalation trial” (BMC Medicine, 2023).
Entries after “also recorded” stand apart in the source; their conditions may differ.

Assay: phase 1b trial: adverse reactions and tolerability in CHB patients
Format: in vivo, human
Method: This was a randomized, open-label, placebo-controlled, phase 1b study (Clinical Trial Registration Number: NCT05470829; Chinese Clinical Trial Registration Number: CTR20210686), which was conducted at the Phase I Clinical Research Center, The First Hospital of Jilin University (Jilin, China), during the period from May to November of 2021. In order to minimize the safety risk of Canocapavir, an adaptive ascending dosing strategy was adopted for Canocapavir treatment in this study. The second and third assigned doses were initiated only after the safety data from the previous dose was reviewed and determined to be safe by the Principal Investigator and the Sponsor on day 8 postdosing (post drug administration days). Canocapavir was administered at the Clinical Research Center on days 1–8 and day 28 and at home on days 9–27 under the same conditions (fixed administration time and fasting condition). Patients were required to visit the facility for follow-up on days 15, 22, 27, 43 ± 1, and 57 ± 2 postdosing. The study protocol and informed consent forms were prepared according to the principles of the Declaration of Helsinki. The study protocol was approved by the Institutional Review Board of the First Hospital of Jilin University (approval number: 20Y201-006). All recruited patients provided written informed consent before participating in any study-related procedures.
A total of 30 CHB patients were recruited in this study and were randomly assigned into three cohorts (N = 10, each). In these three cohorts, the patients (in a ratio of 4:1) received 50, 100, or 200 mg of Canocapavir or placebo once a day for 28 consecutive days under fasting conditions, followed by a 28-day follow-up (Fig. 1). The patients, care providers, and those assessing outcomes were blinded during the study. This random process was completed in an electronic data capture system, and the details are shown in Additional file 1.
To examine possible adverse events (AEs) and adverse reactions (an adverse event is definitely, probably, or possibly related to the drug) in this study, the recruited patients underwent regular clinical laboratory testing, 12-lead electrocardiograms, examination of vital signs, abdominal ultrasound, and regular physical examinations, using the baseline data as a control. The severity of AEs and laboratory abnormalities were graded according to the Common Terminology Criteria for Adverse Events (CTCAE), version 5.0, which defines toxicity criteria. The AEs were coded using the Medical Dictionary for Regulatory Activities, version 24.1 (McLean, VA, USA).

SMILES: O=C1CO[C@H](c2cn(-c3ccc(Br)cc3)nc2-c2ccc(F)cc2)N1CCc1ccc2[nH]c(=O)[nH]c2c1 [Canocapavir]
- Increased aspartate aminotransferase, cases (100 mg q.d., 28 days): 2 case
- Increased aspartate aminotransferase, grade I, number of subjects (100 mg q.d., 28 days): 2 n
- Increased aspartate aminotransferase, grade I, percent of subjects (100 mg q.d., 28 days): 25.00%
- Increased aspartate aminotransferase, grade II, number of subjects (100 mg q.d., 28 days): 0 n
- Increased aspartate aminotransferase, grade II, percent of subjects (100 mg q.d., 28 days): 0%
- Increased aspartate aminotransferase, number of subjects (%) (100 mg q.d., 28 days): 2 (25) n (%)
- Increased bilirubin, cases (100 mg q.d., 28 days): 0 case
- Increased bilirubin, grade I, number of subjects (100 mg q.d., 28 days): 0 n
- Increased bilirubin, grade I, percent of subjects (100 mg q.d., 28 days): 0%
- Increased bilirubin, number of subjects (%) (100 mg q.d., 28 days): 0 (0) n (%)
- Increased creatinine, cases (100 mg q.d., 28 days): 0 case
- Increased creatinine, grade I, number of subjects (100 mg q.d., 28 days): 0 n
- Increased creatinine, grade I, percent of subjects (100 mg q.d., 28 days): 0%
- Increased creatinine, number of subjects (%) (100 mg q.d., 28 days): 0 (0) n (%)
- Increased γ-glutamyltransferase, cases (100 mg q.d., 28 days): 1 case
- Increased γ-glutamyltransferase, grade I, number of subjects (100 mg q.d., 28 days): 1 n
- Increased γ-glutamyltransferase, grade I, percent of subjects (100 mg q.d., 28 days): 12.50%
- Increased γ-glutamyltransferase, number of subjects (%) (100 mg q.d., 28 days): 1 (12.5) n (%)
- Rash, cases (100 mg q.d., 28 days): 1 case
- Rash, grade I, number of subjects (100 mg q.d., 28 days): 1 n
- Rash, grade I, percent of subjects (100 mg q.d., 28 days): 12.50%
- Rash, number of subjects (%) (100 mg q.d., 28 days): 1 (12.5) n (%)
- Total adverse reactions, cases (100 mg q.d., 28 days): 10 case
- Total adverse reactions, number of subjects (%) (100 mg q.d., 28 days): 5 (62.5) n (%)
- maximum ALT level, patient E3010 (100 mg q.d., day 15, baseline 144.9 U/L): 385.4 U/L
- Adverse reactions, grade I, number of subjects (200 mg q.d., 28 days): 3 n
- Adverse reactions, grade I, percent of subjects (200 mg q.d., 28 days): 37.50%
- Adverse reactions, grade II, number of subjects (200 mg q.d., 28 days): 0 n
- Adverse reactions, grade II, percent of subjects (200 mg q.d., 28 days): 0%
- Adverse reactions, grade III, number of subjects (200 mg q.d., 28 days): 1 n
- Adverse reactions, grade III, percent of subjects (200 mg q.d., 28 days): 12.50%
- Adverse reactions, total (all grades), number of subjects (200 mg q.d., 28 days): 4 n
- Adverse reactions, total (all grades), percent of subjects (200 mg q.d., 28 days): 50.0%
- Decreased neutrophil count, cases (200 mg q.d., 28 days): 0 case
- Decreased neutrophil count, grade II, number of subjects (200 mg q.d., 28 days): 0 n
- Decreased neutrophil count, grade II, percent of subjects (200 mg q.d., 28 days): 0%
- Decreased neutrophil count, grade III, number of subjects (200 mg q.d., 28 days): 0 n
- Decreased neutrophil count, grade III, percent of subjects (200 mg q.d., 28 days): 0%
- Decreased neutrophil count, number of subjects (%) (200 mg q.d., 28 days): 0 (0) n (%)
- Decreased platelet count, cases (200 mg q.d., 28 days): 0 case
- Decreased platelet count, grade I, number of subjects (200 mg q.d., 28 days): 0 n
- Decreased platelet count, grade I, percent of subjects (200 mg q.d., 28 days): 0%
- Decreased platelet count, number of subjects (%) (200 mg q.d., 28 days): 0 (0) n (%)
- Decreased serum phosphorus, cases (200 mg q.d., 28 days): 1 case
- Decreased serum phosphorus, grade I, number of subjects (200 mg q.d., 28 days): 1 n
- Decreased serum phosphorus, grade I, percent of subjects (200 mg q.d., 28 days): 12.50%
- Decreased serum phosphorus, number of subjects (%) (200 mg q.d., 28 days): 1 (12.5) n (%)
- Decreased white blood cell count, cases (200 mg q.d., 28 days): 0 case
- Decreased white blood cell count, grade II, number of subjects (200 mg q.d., 28 days): 0 n
- Decreased white blood cell count, grade II, percent of subjects (200 mg q.d., 28 days): 0%
- Decreased white blood cell count, number of subjects (%) (200 mg q.d., 28 days): 0 (0) n (%)
- Hypertriglyceridemia, cases (200 mg q.d., 28 days): 2 case
- Hypertriglyceridemia, grade III, percent of subjects (200 mg q.d., 28 days): 12.50%
- Hypertriglyceridemia, number of subjects (%) (200 mg q.d., 28 days): 1 (12.5) n (%)
- Increased alanine aminotransferase, cases (200 mg q.d., 28 days): 3 case
- Increased alanine aminotransferase, grade I, number of subjects (200 mg q.d., 28 days): 3 n
- Increased alanine aminotransferase, grade I, percent of subjects (200 mg q.d., 28 days): 37.50%
- Increased alanine aminotransferase, grade II, number of subjects (200 mg q.d., 28 days): 0 n
- Increased alanine aminotransferase, grade II, percent of subjects (200 mg q.d., 28 days): 0%
- Increased alanine aminotransferase, number of subjects (%) (200 mg q.d., 28 days): 3 (37.5) n (%)
- Increased aspartate aminotransferase, cases (200 mg q.d., 28 days): 1 case
- Increased aspartate aminotransferase, grade I, number of subjects (200 mg q.d., 28 days): 1 n
- Increased aspartate aminotransferase, grade I, percent of subjects (200 mg q.d., 28 days): 12.50%
- Increased aspartate aminotransferase, grade II, number of subjects (200 mg q.d., 28 days): 0 n
- Increased aspartate aminotransferase, grade II, percent of subjects (200 mg q.d., 28 days): 0%
- Increased aspartate aminotransferase, number of subjects (%) (200 mg q.d., 28 days): 1 (12.5) n (%)
- Increased bilirubin, cases (200 mg q.d., 28 days): 1 case
- Increased bilirubin, grade I, number of subjects (200 mg q.d., 28 days): 1 n
- Increased bilirubin, grade I, percent of subjects (200 mg q.d., 28 days): 12.50%
- Increased bilirubin, number of subjects (%) (200 mg q.d., 28 days): 1 (12.5) n (%)
- Increased creatinine, cases (200 mg q.d., 28 days): 0 case
- Increased creatinine, grade I, number of subjects (200 mg q.d., 28 days): 0 n
- Increased creatinine, grade I, percent of subjects (200 mg q.d., 28 days): 0%
- Increased creatinine, number of subjects (%) (200 mg q.d., 28 days): 0 (0) n (%)
- Increased γ-glutamyltransferase, cases (200 mg q.d., 28 days): 0 case
- Increased γ-glutamyltransferase, grade I, number of subjects (200 mg q.d., 28 days): 0 n
- Increased γ-glutamyltransferase, grade I, percent of subjects (200 mg q.d., 28 days): 0%
- Increased γ-glutamyltransferase, number of subjects (%) (200 mg q.d., 28 days): 0 (0) n (%)
- Rash, cases (200 mg q.d., 28 days): 0 case
- Rash, grade I, number of subjects (200 mg q.d., 28 days): 0 n
- Rash, grade I, percent of subjects (200 mg q.d., 28 days): 0%
- Rash, number of subjects (%) (200 mg q.d., 28 days): 0 (0) n (%)
- Total adverse reactions, cases (200 mg q.d., 28 days): 8 case
- Total adverse reactions, number of subjects (%) (200 mg q.d., 28 days): 4 (50) n (%)
- relation of incidence of adverse reactions to dose (50–200 mg q.d.): not significantly correlated to its increased dose
- safety and tolerability (50–200 mg q.d., 28 days): well tolerated; also recorded: safe and tolerated
- serious adverse events (50–200 mg q.d., 28 days): no serious adverse events; also recorded: No serious AE
- withdrawal from the study (50–200 mg q.d., 28 days): no patients withdrew
- patients with a grade I adverse reaction (elevation of ALT or AST) (across dose cohorts): 12.5–37.5%
- cases of AEs in the Canocapavir cohort (all doses, 24 patients): 38 cases
- cases of adverse reactions in the Canocapavir cohort (all doses, 24 patients): 24 cases
- patients with AEs in the Canocapavir cohort (all doses, 24 patients): 75%
- patients with adverse reactions in the Canocapavir cohort (all doses, 24 patients): 50%
